Experimental data reported in the NIST ThermoML archive (doi:10.1016/j.jct.2005.09.004).

Experiments:
[1] = xn = mol fraction of the nth substance listed; conditions: for surface tension liquid-gas: Drop volume; for mass density: 101 kPa, Liquid
[2] = refractive index (Na D-line) (dimensionless); φn = volume fraction of the nth substance listed; conditions: 101 kPa, Liquid, Standard Abbe refractometry

C1CCCC1 [cyclopentane] + C1COCCO1
Conditions	mass density [kg/m3]	refractive index	surface tension liquid-gas [mN/m]
[1], 283.15 K, x2 = 0.0516	766.94	–	–
[1], 283.15 K, x2 = 0.0615	–	–	24.4
[1], 283.15 K, x2 = 0.095	777.38	–	–
[1], 283.15 K, x2 = 0.121	–	–	24.58
[1], 283.15 K, x2 = 0.1824	–	–	24.76
[1], 283.15 K, x2 = 0.1944	802.55	–	–
[1], 283.15 K, x2 = 0.2656	–	–	25.04
[1], 283.15 K, x2 = 0.2987	830.28	–	–
[1], 283.15 K, x2 = 0.3973	857.59	–	–
[1], 283.15 K, x2 = 0.4058	–	–	25.63
[1], 283.15 K, x2 = 0.499	886.71	–	–
[1], 283.15 K, x2 = 0.5313	–	–	26.4
[1], 283.15 K, x2 = 0.6003	916.64	–	–
[1], 283.15 K, x2 = 0.6376	–	–	27.35
[1], 283.15 K, x2 = 0.7063	949.05	–	–
[1], 283.15 K, x2 = 0.7264	–	–	28.44
[1], 283.15 K, x2 = 0.806	–	–	29.74
[1], 283.15 K, x2 = 0.8072	980.93	–	–
[1], 283.15 K, x2 = 0.902	–	–	31.92
[1], 283.15 K, x2 = 0.9076	1013.82	–	–
[1], 283.15 K, x2 = 0.9528	1029.04	–	–
[1], 283.15 K, x2 = 0.9642	–	–	33.79
[1], 298.15 K, x2 = 0.0488	751.07	–	–
[1], 298.15 K, x2 = 0.0615	–	–	22.37
[1], 298.15 K, x2 = 0.0945	762.02	–	–
[1], 298.15 K, x2 = 0.121	–	–	22.56
[1], 298.15 K, x2 = 0.1818	783.72	–	–
[1], 298.15 K, x2 = 0.1824	–	–	22.74
[1], 298.15 K, x2 = 0.2656	–	–	23.01
[1], 298.15 K, x2 = 0.2983	814.38	–	–
[1], 298.15 K, x2 = 0.3959	841.12	–	–
[1], 298.15 K, x2 = 0.4058	–	–	23.66
[1], 298.15 K, x2 = 0.4962	869.6	–	–
[1], 298.15 K, x2 = 0.5313	–	–	24.56
[1], 298.15 K, x2 = 0.6067	902	–	–
[1], 298.15 K, x2 = 0.6376	–	–	25.57
[1], 298.15 K, x2 = 0.7034	931.45	–	–
[1], 298.15 K, x2 = 0.7264	–	–	26.68
[1], 298.15 K, x2 = 0.806	–	–	27.93
[1], 298.15 K, x2 = 0.811	965.2	–	–
[1], 298.15 K, x2 = 0.902	–	–	30.03
[1], 298.15 K, x2 = 0.9025	995.13	–	–
[1], 298.15 K, x2 = 0.9506	1011.12	–	–
[1], 298.15 K, x2 = 0.9642	–	–	31.9
[1], 313.15 K, x2 = 0.0449	734.98	–	–
[1], 313.15 K, x2 = 0.0615	–	–	20.14
[1], 313.15 K, x2 = 0.094	746.73	–	–
[1], 313.15 K, x2 = 0.121	–	–	20.45
[1], 313.15 K, x2 = 0.1824	–	–	20.77
[1], 313.15 K, x2 = 0.195	771.73	–	–
[1], 313.15 K, x2 = 0.2656	–	–	21.15
[1], 313.15 K, x2 = 0.2962	798.13	–	–
[1], 313.15 K, x2 = 0.3969	825.52	–	–
[1], 313.15 K, x2 = 0.4058	–	–	21.83
[1], 313.15 K, x2 = 0.4983	854.12	–	–
[1], 313.15 K, x2 = 0.5313	–	–	22.62
[1], 313.15 K, x2 = 0.5994	883.66	–	–
[1], 313.15 K, x2 = 0.6376	–	–	23.59
[1], 313.15 K, x2 = 0.6987	913.64	–	–
[1], 313.15 K, x2 = 0.7264	–	–	24.72
[1], 313.15 K, x2 = 0.8026	946.08	–	–
[1], 313.15 K, x2 = 0.806	–	–	26.05
[1], 313.15 K, x2 = 0.902	–	–	28.24
[1], 313.15 K, x2 = 0.9066	979.72	–	–
[1], 313.15 K, x2 = 0.9482	993.49	–	–
[1], 313.15 K, x2 = 0.9642	–	–	30.03
[2], 283.15 K, φ2 = 0.0438	–	1.41192	–
[2], 283.15 K, φ2 = 0.087	–	1.41201	–
[2], 283.15 K, φ2 = 0.1787	–	1.41266	–
[2], 283.15 K, φ2 = 0.2781	–	1.41381	–
[2], 283.15 K, φ2 = 0.3694	–	1.41511	–
[2], 283.15 K, φ2 = 0.4754	–	1.41686	–
[2], 283.15 K, φ2 = 0.5928	–	1.41854	–
[2], 283.15 K, φ2 = 0.7068	–	1.4208	–
[2], 283.15 K, φ2 = 0.7975	–	1.42271	–
[2], 283.15 K, φ2 = 0.9083	–	1.42517	–
[2], 283.15 K, φ2 = 0.9568	–	1.42621	–
[2], 298.15 K, φ2 = 0.0401	–	1.40332	–
[2], 298.15 K, φ2 = 0.0979	–	1.40358	–
[2], 298.15 K, φ2 = 0.1873	–	1.4043	–
[2], 298.15 K, φ2 = 0.2827	–	1.40556	–
[2], 298.15 K, φ2 = 0.3727	–	1.40698	–
[2], 298.15 K, φ2 = 0.4709	–	1.40874	–
[2], 298.15 K, φ2 = 0.5703	–	1.41064	–
[2], 298.15 K, φ2 = 0.6847	–	1.41303	–
[2], 298.15 K, φ2 = 0.785	–	1.41517	–
[2], 298.15 K, φ2 = 0.8986	–	1.41772	–
[2], 298.15 K, φ2 = 0.9436	–	1.41867	–
[2], 313.15 K, φ2 = 0.0434	–	1.39455	–
[2], 313.15 K, φ2 = 0.0858	–	1.39477	–
[2], 313.15 K, φ2 = 0.181	–	1.3956	–
[2], 313.15 K, φ2 = 0.2747	–	1.39691	–
[2], 313.15 K, φ2 = 0.3702	–	1.3985	–
[2], 313.15 K, φ2 = 0.472	–	1.40052	–
[2], 313.15 K, φ2 = 0.5688	–	1.40259	–
[2], 313.15 K, φ2 = 0.6767	–	1.40502	–
[2], 313.15 K, φ2 = 0.7759	–	1.40729	–
[2], 313.15 K, φ2 = 0.8977	–	1.41018	–
[2], 313.15 K, φ2 = 0.933	–	1.41105	–
